# Assay results published in patent publication US20130149721A1, “Methods for Inhibiting Amyloid Precursor Protein and Beta-Amyloid Production and Accumulation” (WISCONSIN ALUMNI RESEARCH FOUNDATION, priority 2008, published 2013).
# Marks after values point to notes of the source that are not given here.
# What was measured:
# [1] = test system: audiogenic seizures in mice; assay: Audiogenic seizure (AGS) testing; format: in vivo, mouse; settings: MPEP 30 mg/kg I.P. 30 min prior to AGS testing
# Description: Audiogenic Seizure Testing, Data Analyses and mGluR5 Blockade: All mouse strains were tested at postnatal day 21, the peak of AGS sensitivity. The experimental apparatus consisted of a clear, Plexiglas box (13″L×8″W×7″H) with the sound source located inside the box (LOUD KEY™ jogger's alarm). Mice were weighed and then placed individually into the center of the chamber and exposed to a siren that generated noise at 118 dB for 5 min. Loud, acoustic stimulation causes wild running (WR) behavior within 20-30 sec followed by erratic leaping, clonic convulsions and tonic hind limb extension by 40-50 sec followed by respiratory arrest and death (Chen, et al., 2001, Neuroscience 103, 1043-1050). The animals were scored for the latency time of wild running (WR), AGS and respiratory arrest (death). […] MPEP was a kind gift from FRAXA Research Foundation (Newburyport, Mass.) and was dissolved at 1 mg/mL in DPBS before I.P. injection at 30 mg/kg body weight 30 min prior to AGS testing.
# Tg2576 mice over-expressed hAPPSwe and hAβ. FRAXAD were a cross between fmr-1^−/− (Fragile X mouse model) and Tg2576 (AD mouse model) and generated 23% more brain hAβ1-40 than Tg2576 (Westmark et al., 2008, Int J Clin Exp Pathol 1: 157-168). […] It was determined whether hAPPSwe/hAβ over-expression in an fmr-1 null background (FRAXAD mice) increased AGS. C57BL/6 fmr-1^−/− mice were sensitive to AGS from 15-47 days with a peak at 21 days (Yan et al., 2005, Neuropharmacology 49: 1053-1066). AGS in WT, fmr-1^−/−, Tg2576 and FRAXAD mice was examined at 21 days of age. Mice were transferred to a Plexiglas box (13″L×8″W×7″H) shortly after weaning and exposed to high pitch siren (118 dB) from a personal body alarm (LOUD KEY™).
# A common denominator between Fragile X Syndrome (FXS), Downs Syndrome (DS), and Alzheimer's Disease (AD) is the over-expression of amyloid precursor protein (APP) and/or beta-amyloid (Aβ). […] Additionally, methods that decreased APP/Aβ levels were expected to reduce AGS. Accordingly, AGS rates were examined in AD, FXS and DS mouse models. AGS rates for FRAXAD, Tg2576, and fmr-1^−/−, Ts65Dn were described above in Example 6. Here, the ability of 2-methyl-6-(phenylethynyl)pyridine hydrochloride (MPEP) to attenuate AGS was assessed. Tg2576 and FRAXAD mice were treated with MPEP for 30 min prior to AGS stimulation to assess the effect of mGluR5 blockade on seizure propensity in AD mouse models.
# [2] = test system: PTZ-induced seizures in WT, Fmr-1 KO, Tg2576 and FRAXAD mice; assay: PTZ seizure induction after MPEP pre-treatment; format: in vivo, mouse; settings: 30 mg/kg MPEP I.P. 30 min prior to PTZ
# Description: To assess the impact of mGluR5 inhibition on seizure phenotypes, Frm-1 KO, Tg2576, and FRAXAD mice were treated with mGluR5 antagonist, MPEP. Tg2576, FRAXAD and littermate controls were treated with 30 mg/kg MPEP (via I.P. injections) 30 min prior to seizure induction with PTZ. The experimental results presented in Table 2 support MPEP's effect as an anti-convulsant in both WT and Fmr-1 KO mice. WT male mice reach a grade 3 seizure, fully developed minimal seizure with clonus of the head muscles and forelimbs, at a rate of 50% in response to 50 mg/kg PTZ, but only 20% achieve a grade 3 seizure with MPEP treatment 30 min prior to PTZ (statistically significant, χ^2 test, p<0.0005). Likewise, there was a reduction from 11% to 0%, 46% to 25%, and 40% to 33% in WT females, Fmr-1 KO males and Fmr-1 KO females, respectively when tested using the seizure induction assay.
compound,measurement,setting,value
"Cc1cccc(C#Cc2ccccc2)n1 [MPEP, 2-methyl-6-(phenylethynyl)pyridine]",% Death,[1]; FRAXAD mice,7%
same,% WR,[1]; FRAXAD mice,60%
same,% Death,[1]; Fmr-1 KO mice,0%
same,% WR,[1]; Fmr-1 KO mice,14%
same,% Death,[1]; Tg2576 mice,0%
same,% WR,[1]; Tg2576 mice,0%
same,% AGS,[1]; WT mice,0%
same,% Death,[1]; WT mice,0%
same,% WR,[1]; WT mice,0%
same,MPEP + PTZ % death,[2]; FMR-1 KO female,0%
same,MPEP + PTZ % grade 3,[2]; FMR-1 KO female,33%
same,MPEP + PTZ % death,[2]; FMR-1 KO male,0%
same,MPEP + PTZ % grade 3,"[2]; FMR-1 KO male, 30 mg/kg",25%
same,MPEP + PTZ % death,[2]; FRAXAD female,40* %
same,MPEP + PTZ % grade 3,[2]; FRAXAD female,100%
same,MPEP + PTZ % death,[2]; FRAXAD male,60* %
same,MPEP + PTZ % grade 3,[2]; FRAXAD male,80%
same,MPEP + PTZ % death,[2]; Tg2576 female,50* %
same,MPEP + PTZ % grade 3,[2]; Tg2576 female,75%
same,MPEP + PTZ % death,[2]; Tg2576 male,75%
same,MPEP + PTZ % grade 3,[2]; Tg2576 male,100%
same,MPEP + PTZ % death,[2]; WT female,0%
same,MPEP + PTZ % grade 3,"[2]; WT female, 30 mg/kg",0%
same,MPEP + PTZ % death,[2]; WT male,0%
same,MPEP + PTZ % grade 3,"[2]; WT male, 30 mg/kg",20%
